Measurements published in DBAASP.
In brackets after ≈: the same amount, converted by molar mass. Several values for one entry are separate records, joined by “and”; a condition that tells them apart may be missing. Identical values can stand only once.

How the values were obtained:
Experiment in all cases: ≥ marks a high value that may be exact or a test limit, other limits are often not marked, values filed in µg/mL are converted to µM
[1] = system: Staphylococcus aureus ATCC 29213
[2] = system: Pseudomonas aeruginosa ATCC 27853
[3] = system: Candida albicans ATCC 10231
[4] = system: Enterococcus faecalis ATCC 29212
[5] = system: Salmonella enterica subsp. enterica serovar Pullorum C79-13
Escherichia coli UB1005 = system: Escherichia coli UB1005
[6] = system: Salmonella enterica subsp. enterica serovar Typhimurium C77-31
[7] = system: Staphylococcus epidermidis ATCC 12228
[8] = system: Escherichia coli ATCC 25922
[9] = system: Salmonella enterica subsp. enterica serovar Typhimurium ATCC 14028
[10] = system: Klebsiella pneumoniae ATCC 13883
[11] = system: Acinetobacter baumannii ATCC 19606
[12] = system: Staphylococcus aureus ATCC 25923
[13] = system: Staphylococcus aureus ATCC 43300
[14] = system: Staphylococcus epidermidis KCTC 1917
[15] = system: Salmonella typhimurium KCTC 1926
[16] = system: Staphylococcus aureus KCTC 1621
[17] = system: Pseudomonas aeruginosa KCTC 1637
[18] = system: Bacillus subtilis KCTC 3068
[19] = system: Escherichia coli KCTC 1682
Staphylococcus aureus = system: Staphylococcus aureus
Klebsiella pneumoniae = system: Klebsiella pneumoniae
Escherichia coli = system: Escherichia coli
Acinetobacter baumannii = system: Acinetobacter baumannii
Pseudomonas aeruginosa = system: Pseudomonas aeruginosa

Row | SMILES | MIC [2] | MIC [8] | MIC [14] | MIC [15] | MIC [16] | MIC [17] | MIC [18] | MIC [19] | further results
1 | CC(C)C[C@H](NC(=O)[C@H](CCCCN)NC(=O)[C@H](CCC(=O)O)NC(=O)[C@H](CC(C)C)NC(=O)[C@H](CC(C)C)NC(=O)[C@H](C)NC(=O)[C@H](CCCCN)NC(=O)[C@H](CC(C)C)NC(=O)[C@H](CCCCN)NC(=O)[C@H](CC(C)C)NC(=O)[C@H](CC(C)C)NC(=O)[C@H](CC(C)C)NC(=O)[C@H](Cc1c[nH]c2ccccc12)NC(=O)[C@H](CCCCN)NC(=O)[C@H](CC(C)C)NC(=O)[C@H](CC(C)C)NC(=O)[C@H](CCCCN)NC(=O)[C@@H](N)Cc1ccc(O)cc1)C(N)=O [YKLLKWLLLKLKALLEKL] | 28.6 µM (≈ 63.6 µg/mL) | – | – | – | – | – | – | – | MIC [1]: 38.1 µM (≈ 84.8 µg/mL); MIC [3]: > 76.3 µM
2 | CC(C)C[C@H](NC(=O)[C@H](CC(C)C)NC(=O)[C@H](CCCN=C(N)N)NC(=O)[C@H](CCCN=C(N)N)NC(=O)[C@H](C)NC(=O)[C@H](Cc1c[nH]c2ccccc12)NC(=O)CNC(=O)[C@H](CCCN=C(N)N)NC(=O)[C@@H](N)CCCN=C(N)N)C(=O)N[C@@H](CCCN=C(N)N)C(=O)N[C@@H](C)C(=O)N[C@@H](Cc1ccccc1)C(=O)N[C@@H](C)C(=O)N[C@@H](Cc1ccccc1)C(=O)NCC(=O)N[C@@H](CCCN=C(N)N)C(=O)N[C@@H](CCCN=C(N)N)C(N)=O [RRGWARRLLRAFAFGRR] | – | – | – | – | – | – | – | – | MIC [10]: 30 µM (≈ 64.3 µg/mL); MIC [11]: 2.7 µM (≈ 5.79 µg/mL); MIC [12]: > 30 µM; MIC [9]: 2.9 µM (≈ 6.22 µg/mL)
3 | CC[C@H](C)[C@H](N)C(=O)NCC(=O)N[C@@H](CCCCN)C(=O)N[C@@H](CC(C)C)C(=O)N[C@@H](Cc1ccccc1)C(=O)N[C@@H](CCCCN)C(=O)N[C@@H](CCCN=C(N)N)C(=O)N[C@H](C(=O)N[C@H](C(=O)N[C@@H](CCC(N)=O)C(=O)N[C@@H](CCCN=C(N)N)C(=O)N[C@H](C(=O)N[C@@H](CC(C)C)C(=O)N[C@@H](CCCCN)C(=O)N[C@@H](Cc1ccccc1)C(=O)N[C@@H](CC(C)C)C(=O)N[C@@H](CCCN=C(N)N)C(=O)N[C@@H](CC(N)=O)C(=O)N[C@@H](CC(C)C)C(=O)O)[C@@H](C)CC)C(C)C)[C@@H](C)CC [IGKLFKRIVQRILKFLRNL] | – | – | 8 µM (≈ 18.8 µg/mL) | 4 µM (≈ 9.42 µg/mL) | 8 µM (≈ 18.8 µg/mL) | 8 µM (≈ 18.8 µg/mL) | 2 µM (≈ 4.71 µg/mL) | 8 µM (≈ 18.8 µg/mL) | –
4 | CC(C)C[C@H](NC(=O)[C@H](C)NC(=O)[C@H](Cc1c[nH]c2ccccc12)NC(=O)[C@H](CCCCN)NC(=O)[C@H](CC(N)=O)NC(=O)[C@H](Cc1c[nH]c2ccccc12)NC(=O)[C@H](CCCCN)NC(=O)[C@H](CCCCN)NC(=O)[C@H](CCCN=C(N)N)NC(=O)[C@H](Cc1ccccc1)NC(=O)[C@H](CCC(=O)O)NC(=O)[C@H](CO)NC(=O)[C@H](C)NC(=O)[C@@H](NC(=O)[C@H](CC(=O)O)NC(=O)[C@H](CC(C)C)NC(=O)[C@H](CCCN=C(N)N)NC(=O)[C@H](C)N)C(C)C)C(=O)N[C@@H](CO)C(=O)N[C@@H](CCCN=C(N)N)C(N)=O [ARLDVASEFRKKWNKWALSR] | – | – | 8 µM (≈ 19.7 µg/mL) | 16 µM (≈ 39.4 µg/mL) | 16 µM (≈ 39.4 µg/mL) | ≥ 32 µM | 8 µM (≈ 19.7 µg/mL) | 8 µM (≈ 19.7 µg/mL) | –
5 | CC[C@H](C)[C@H](NC(=O)[C@H](CCCCN)NC(=O)CNC(=O)[C@H](C)NC(=O)[C@H](CCCCN)NC(=O)CNC(=O)[C@H](C)NC(=O)[C@@H](NC(=O)[C@H](CCCCN)NC(=O)[C@H](C)NC(=O)[C@@H](NC(=O)[C@H](CCCCN)NC(=O)CNC(=O)[C@H](C)NC(=O)[C@H](CCCCN)NC(=O)CNC(=O)[C@H](C)NC(=O)[C@@H](NC(=O)[C@@H](N)CCCCN)[C@@H](C)CC)[C@@H](C)CC)[C@@H](C)CC)C(=O)N[C@@H](C)C(N)=O [KIAGKAGKIAKIAGKAGKIA] | > 64 µM | > 64 µM | – | – | – | – | – | – | MIC [10]: ≥ 64 µM; MIC (Staphylococcus aureus): > 64 µM; MIC (Klebsiella pneumoniae): > 64 µM; MIC [11]: > 64 µM; MIC (Escherichia coli): > 64 µM; MIC (Acinetobacter baumannii): ≥ 64 µM; MIC [12]: > 64 µM; MIC (Pseudomonas aeruginosa): > 64 µM
6 | CC[C@H](C)[C@H](NC(=O)[C@H](CCCCN)NC(=O)[C@H](CCCCN)NC(=O)[C@H](CC(C)C)NC(=O)[C@@H](N)CCCCN)C(=O)N[C@H](C(=O)N[C@H](C(=O)N[C@H](C(=O)N[C@@H](CCCCN)C(=O)N[C@H](C(=O)N[C@@H](CCCCN)C(=O)N[C@@H](CCCCN)C(N)=O)C(C)C)[C@@H](C)CC)C(C)C)C(C)C [KLKKIVVIKVKK] | – | – | 2.2 µM (≈ 3.13 µg/mL) | 2.2 µM (≈ 3.13 µg/mL) | 8.78 µM (≈ 12.5 µg/mL) | 17.6 µM (≈ 25 µg/mL) | 8.78 µM (≈ 12.5 µg/mL) | 8.78 µM (≈ 12.5 µg/mL) | –

Second part, led by results:

Row | MIC [2] | MIC [8] | MIC [14] | MIC [15] | MIC [16] | MIC [17] | MIC [18] | MIC [19] | SMILES | further results
7 | 64 µM (≈ 67.8 µg/mL) | 64 µM and 128 µM | – | – | – | – | – | – | CC(C)C[C@H](NC(=O)[C@H](Cc1ccccc1)NC(=O)[C@@H]1CCCN1C(=O)[C@H](Cc1c[nH]c2ccccc12)NC(=O)[C@@H](N)Cc1c[nH]c2ccccc12)C(=O)N[C@@H](CCCN=C(N)N)C(=O)N[C@@H](CCCN=C(N)N)C(N)=O [WWPFLRR] | MIC [1]: 64 µM and 128 µM; MIC [4]: > 128 µM; MIC [5]: ≥ 64 µM; MIC (Escherichia coli UB1005): ≥ 128 µM; MIC [6]: ≥ 64 µM; MIC [7]: 32 µM (≈ 33.9 µg/mL); MIC [9]: 32 µM (≈ 33.9 µg/mL)
8 | > 113 µM | > 113 µM | – | – | – | – | – | – | CC(C)[C@H](NC(=O)CN)C(=O)N[C@@H](CO)C(=O)NCC(=O)N[C@@H](Cc1cnc[nH]1)C(=O)NCC(=O)N[C@@H](CCC(N)=O)C(=O)N[C@@H](Cc1cnc[nH]1)C(=O)NCC(=O)N[C@H](C(=O)N[C@@H](Cc1cnc[nH]1)C(=O)NCC(=O)O)C(C)C [GVSGHGQHGVHG] | MIC [3]: > 113 µM; MIC [4]: > 113 µM; MIC [13]: > 113 µM
9 | – | – | 2 µM (≈ 3.39 µg/mL) | 2 µM (≈ 3.39 µg/mL) | 4 µM (≈ 6.78 µg/mL) | 2 µM (≈ 3.39 µg/mL) | 4 µM (≈ 6.78 µg/mL) | 2 µM (≈ 3.39 µg/mL) | CC[C@H](C)[C@H](NC(=O)[C@H](CCCN=C(N)N)NC(=O)[C@H](CCCCN)NC(=O)[C@H](CCCN=C(N)N)NC(=O)[C@@H](NC(=O)[C@H](CCCN=C(N)N)NC(=O)[C@@H](N)CCCCN)[C@@H](C)CC)C(=O)N[C@@H](CCCCN)C(=O)N[C@@H](CCCCN)C(=O)N[C@@H](Cc1c[nH]c2ccccc12)C(=O)N[C@@H](CCCCN)C(=O)N[C@@H](CCCN=C(N)N)C(N)=O [KRIRKRIKKWKR] | –
10 | – | – | 16.2 µM (≈ 25 µg/mL) | 16.2 µM (≈ 25 µg/mL) | 16.2 µM (≈ 25 µg/mL) | 16.2 µM (≈ 25 µg/mL) | ≥ 32.5 µM | ≥ 32.5 µM | CC[C@H](C)[C@H](NC(=O)[C@H](CCCCN)NC(=O)[C@H](Cc1c[nH]c2ccccc12)NC(=O)[C@H](CC(C)C)NC(=O)[C@@H](N)CCCCN)C(=O)N[C@H](C(=O)N[C@H](C(=O)N[C@H](C(=O)N[C@@H](CCCCN)C(=O)N[C@H](C(=O)N[C@@H](Cc1c[nH]c2ccccc12)C(=O)N[C@@H](CCCCN)C(N)=O)C(C)C)[C@@H](C)CC)C(C)C)C(C)C [KLWKIVVIKVWK] | –
11 | – | 2 µM (≈ 6.04 µg/mL) | – | – | – | – | – | – | CC(C)C[C@H](NC(=O)CNC(=O)CNC(=O)CNC(=O)[C@H](Cc1c[nH]c2ccccc12)NC(=O)[C@H](CCCCN)NC(=O)[C@H](Cc1c[nH]c2ccccc12)NC(=O)[C@H](CCCCN)NC(=O)[C@H](Cc1c[nH]c2ccccc12)NC(=O)[C@H](CCCCN)NC(=O)CNC(=O)[C@H](CC(N)=O)NC(=O)[C@H](CCCCN)NC(=O)[C@H](Cc1c[nH]c2ccccc12)NC(=O)[C@H](CCCCN)NC(=O)[C@H](Cc1c[nH]c2ccccc12)NC(=O)[C@H](CCCCN)NC(=O)[C@@H](N)Cc1c[nH]c2ccccc12)C(=O)N[C@H](C(=O)N[C@H](C(=O)N[C@@H](CC(C)C)C(=O)N[C@H](C(=O)N[C@@H](Cc1ccccc1)C(=O)N[C@H](C(=O)O)C(C)C)C(C)C)[C@@H](C)O)C(C)C [WKWKWKNGKWKWKWGGGLVTLVFV] | MIC [1]: 8 µM (≈ 24.1 µg/mL); MIC [4]: 16 µM (≈ 48.3 µg/mL); MIC [5]: 8 µM (≈ 24.1 µg/mL); MIC [6]: ≥ 128 µM; MIC [7]: 32 µM (≈ 96.6 µg/mL)
